# Assay results taken from patent US20120238549A1, “Nuclear Hormone Receptor Modulators” (ABBOTT LABORATORIES, priority 2011, published 2012).
# pIC50: −log10 of the molar value.
# Target: T1, Glucocorticoid Receptor (GR) (Homo sapiens, UniProt P04150)
# T1 construct: purchased Invitrogen P2893
# T1 sequence (P04150 1-777): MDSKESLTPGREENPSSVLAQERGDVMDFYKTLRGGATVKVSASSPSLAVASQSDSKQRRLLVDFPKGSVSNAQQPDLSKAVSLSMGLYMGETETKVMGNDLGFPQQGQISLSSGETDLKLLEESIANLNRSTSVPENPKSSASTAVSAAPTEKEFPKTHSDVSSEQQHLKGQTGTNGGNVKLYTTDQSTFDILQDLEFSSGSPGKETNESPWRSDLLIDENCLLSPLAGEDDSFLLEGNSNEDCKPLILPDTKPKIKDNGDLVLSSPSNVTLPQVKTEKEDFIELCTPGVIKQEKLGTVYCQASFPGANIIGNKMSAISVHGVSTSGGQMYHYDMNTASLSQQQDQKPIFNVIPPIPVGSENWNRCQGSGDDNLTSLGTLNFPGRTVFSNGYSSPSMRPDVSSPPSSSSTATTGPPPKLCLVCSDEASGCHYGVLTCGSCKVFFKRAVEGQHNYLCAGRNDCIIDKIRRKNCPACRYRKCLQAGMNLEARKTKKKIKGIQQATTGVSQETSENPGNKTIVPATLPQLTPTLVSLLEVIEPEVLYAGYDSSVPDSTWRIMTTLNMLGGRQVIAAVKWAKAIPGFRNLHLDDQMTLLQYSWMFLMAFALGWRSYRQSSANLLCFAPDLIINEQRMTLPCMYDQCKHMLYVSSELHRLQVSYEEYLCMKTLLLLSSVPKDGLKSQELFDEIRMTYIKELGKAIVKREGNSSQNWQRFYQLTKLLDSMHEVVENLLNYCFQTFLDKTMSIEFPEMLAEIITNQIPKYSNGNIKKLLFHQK
# Assay: GR Florescence Polarization Assay (PolarScreen Glucocorticoid Receptor Competitor Assay, Red)
# Conditions: Fluorescense polarization binding ranges; competition with fluorescent glucocorticoid, incubated overnight at 4° C.
# How it was run: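 Competitive fluorescence polarization using fluorescent glucocorticoid tracer and human GR in kit buffer. Compounds serially diluted 1:4 in DMSO, incubated with tracer and GR overnight at 4 °C before polarization read.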
row,SMILES,pIC50
1,"Cc1ncccc1NC(=O)c1ccc2c(c1)CCC[C@@H]1C[C@](C)(O)CC[C@@]21Cc1ccccc1 (single isomer, unassigned) [Example 90]",> 7.00
2,"CCC[C@]1(O)CC[C@]2(CC)c3ccc(C(=O)Nc4cccnc4C)cc3OCC[C@@H]2C1 (single isomer, unassigned) [Example 120]",6.00 to 7.00
3,"CC[C@@]12CC[C@](O)(c3ccccc3)C[C@@H]1CCCc1cc(C(=O)Nc3cccnc3C)ccc12 (single isomer, unassigned) [Example 122]",> 7.00
4,"CC[C@@]12C[C@@H](O)[C@](O)(c3ccccc3)C[C@@H]1CCCc1cc(C(=O)Nc3cccnc3C)ccc12 (single isomer, unassigned) [Example 124]",5.00 to 6.00
5,"CC[C@]12C[C@H](O)[C@@](O)(c3ccccc3)C[C@H]1CCCc1cc(C(=O)Nc3cccnc3C)ccc12 (single isomer, unassigned) [Example 125]",> 7.00
6,"CCC[C@@]1(O)CC[C@@]2(CC)c3ccc(-c4nc5ccccc5[nH]4)cc3CCC[C@H]2C1 (single isomer, unassigned) [Example 147]",5.00 to 6.00
7,"Cc1ncccc1NC(=O)c1ccc2c(c1)CCC[C@H]1CC(C)(O)CC[C@]21Cc1ccccc1 (stereo in doubt) [Example 91, (7aS,9R,11aR)-11a-benzyl-9-hydroxy-9-methyl-6,7,7a,8,9,10,11,11a-octahydro-5H-dibenzo[a,c]cycloheptene-3-carboxylic acid (2-methyl-pyridin-3-yl)-amide]",6.00 to 7.00
8,"COc1ccc2c(c1)CCCC1=CC(=O)CCC12Cc1ccccc1 (centres unmarked) [Example 1, 11b-Benzyl-9-methoxy-1,2,5,6,7,11b-hexahydro-dibenzo[a,c]cyclohepten-3-one]",6.00 to 7.00
9,"Cc1ncccc1NC(=O)c1ccc2c(c1)CCC[C@@H]1C[C@@](C)(O)CC[C@@]21Cc1ccccc1.Cc1ncccc1NC(=O)c1ccc2c(c1)CCC[C@H]1C[C@](C)(O)CC[C@]21Cc1ccccc1 [Example 10, (7aR,9S,11aS)-11a-benzyl-9-hydroxy-9-methyl-6,7,7a,8,9,10,11,11a-octahydro-5H-dibenzo[a,c]cycloheptene-3-carboxylic acid (2-methyl-pyridin-3-yl)-amide; compound with (7aS,9R,11aR)-11a-benzyl-9-hydroxy-9-methyl-6,7,7a,8,9,10,11,11a-octahydro-5H-dibenzo[a,c]cycloheptene-3-carboxylic acid (2-methyl-pyridin-3-yl)-amide]",> 7.00
10,"CC[C@@]1(O)CC[C@]2(Cc3ccccc3)c3ccc(C(=O)Nc4cccnc4C)cc3CCC[C@@H]2C1.CC[C@]1(O)CC[C@@]2(Cc3ccccc3)c3ccc(C(=O)Nc4cccnc4C)cc3CCC[C@H]2C1 [Example 13, (7aS,9S,11aS)-11a-benzyl-9-ethyl-9-hydroxy-6,7,7a,8,9,10,11,11a-octahydro-5H-dibenzo[a,c]cycloheptene-3-carboxylic acid (2-methyl-pyridin-3-yl)-amide; compound with (7aR,9R,11aR)-11a-benzyl-9-ethyl-9-hydroxy-6,7,7a,8,9,10,11,11a-octahydro-5H-dibenzo[a,c]cycloheptene-3-carboxylic acid (2-methyl-pyridin-3-yl)-amide]",6.00 to 7.00
11,"Cc1ncccc1NC(=O)c1ccc2c(c1)NC(=O)C[C@@H]1C[C@@](O)(C(F)(F)F)CC[C@@]21Cc1ccccc1 [Example 20, (7aS,9R,11aS)-11a-Benzyl-9-hydroxy-N-(2-methylpyridin-3-yl)-6-oxo-9-(trifluoromethyl)-6,7,7a,8,9,10,11,11a-octahydro-5H-dibenzo[b,d]azepine-3-carboxamide]",6.00 to 7.00
12,"Cc1ncccc1NC(=O)c1ccc2c(c1)NC(=O)C[C@H]1CC(O)(C(F)(F)F)CC[C@@]21Cc1ccccc1 (stereo partly drawn) [Example 21, (7aR,11aS)-11a-Benzyl-9-hydroxy-N-(2-methylpyridin-3-yl)-6-oxo-9-(trifluoromethyl)-6,7,7a,8,9,10,11,11a-octahydro-5H-dibenzo[b,d]azepine-3-carboxamide]",< 5.00
13,"CCC[C@@]12CC[C@](O)(CC)C[C@@H]1CCCc1cc(C(=O)Nc3cccnc3C)ccc12.CCC[C@]12CC[C@@](O)(CC)C[C@H]1CCCc1cc(C(=O)Nc3cccnc3C)ccc12 [Example 26, (7aR,9S,11aS)-9-Ethyl-9-hydroxy-11a-propyl-6,7,7a,8,9,10,11,11a-octahydro-5H-dibenzo[a,c]cycloheptene-3-carboxylic acid (2-methyl-pyridin-3-yl)-amide; compound with (7aS,9R,11aR)-9-ethyl-9-hydroxy-11a-propyl-6,7,7a,8,9,10,11,11a-octahydro-5H-dibenzo[a,c]cycloheptene-3-carboxylic acid (2-methyl-pyridin-3-yl)-amide]",> 7.00

# Now from value to compound:
row,pIC50,SMILES
1,> 7.00,"CCC[C@@]1(O)CC[C@@]2(CC)c3ccc(C(=O)Nc4cccnc4C)cc3OCC[C@H]2C1 (single isomer, unassigned) [Example 121]"
2,6.00 to 7.00,"CC[C@]12CC[C@@](O)(c3ccccc3)C[C@H]1CCCc1cc(C(=O)Nc3cccnc3C)ccc12 (single isomer, unassigned) [Example 123]"
3,6.00 to 7.00,"CCC[C@@]1(O)CC[C@@]2(CC)c3ccc(C(=O)Nc4cccnc4C)cc3C=CC[C@H]2C1 (single isomer, unassigned) [Example 129]"
4,> 7.00,"CCC[C@]1(O)CC[C@]2(CC)c3ccc(C(=O)Nc4cccnc4C)cc3C=CC[C@@H]2C1 (single isomer, unassigned) [Example 130]"
5,5.00 to 6.00,"CCC[C@]1(O)CC[C@]2(CC)c3ccc(C(=O)Nc4cccnc4C)cc3COC[C@@H]2C1 (single isomer, unassigned) [Example 137]"
6,> 7.00,"CCC[C@@]1(O)CC[C@@]2(CC)c3ccc(C(=O)Nc4cccnc4C)cc3COC[C@H]2C1 (single isomer, unassigned) [Example 138]"
7,5.00 to 6.00,"CCC[C@]1(O)CC[C@]2(CC)c3ccc(-c4nc5ccccc5[nH]4)cc3CCC[C@@H]2C1 (single isomer, unassigned) [Example 148]"
8,6.00 to 7.00,"O=C1C=C2CCCc3cc(O)ccc3C2(Cc2ccccc2)CC1 (centres unmarked) [Example 2, 11b-Benzyl-9-hydroxy-1,2,5,6,7,11b-hexahydro-dibenzo[a,c]cyclohepten-3-one]"
9,6.00 to 7.00,"O=C1CC[C@@]2(Cc3ccccc3)c3ccc(O)cc3CCC[C@H]2C1.O=C1CC[C@]2(Cc3ccccc3)c3ccc(O)cc3CCC[C@@H]2C1 [Example 4, (4aS,11bS)-11b-Benzyl-9-hydroxy-1,2,4,4a,5,6,7,11b-octahydro-dibenzo[a,c]cyclohepten-3-one; compound with (4aR,11bR)-11b-benzyl-9-hydroxy-1,2,4,4a,5,6,7,11b-octahydro-dibenzo[a,c]cyclohepten-3-one]"
10,6.00 to 7.00,"O=C1CC[C@@]2(Cc3ccccc3)c3ccc(O)cc3CCC[C@@H]2C1.O=C1CC[C@]2(Cc3ccccc3)c3ccc(O)cc3CCC[C@H]2C1 [Example 5, (4aR,11bS)-11b-benzyl-9-hydroxy-1,2,4,4a,5,6,7,11b-octahydro-dibenzo[a,c]cyclohepten-3-one; compound with (4aS,11bR)-11b-benzyl-9-hydroxy-1,2,4,4a,5,6,7,11b-octahydro-dibenzo[a,c]cyclohepten-3-one]"
11,> 7.00,"Cc1ncccc1NC(=O)c1ccc2c(c1)CCC[C@@H]1C[C@](C)(O)CC[C@@]21Cc1ccccc1.Cc1ncccc1NC(=O)c1ccc2c(c1)CCC[C@H]1C[C@@](C)(O)CC[C@]21Cc1ccccc1 [Example 9, (7aR,9R,11aS)-11a-Benzyl-9-hydroxy-9-methyl-6,7,7a,8,9,10,11,11a-octahydro-5H-dibenzo[a,c]cycloheptene-3-carboxylic acid (2-methyl-pyridin-3-yl)-amide; compound with (7aS,9S,11aR)-11a-benzyl-9-hydroxy-9-methyl-6,7,7a,8,9,10,11,11a-octahydro-5H-dibenzo[a,c]cycloheptene-3-carboxylic acid (2-methyl-pyridin-3-yl)-amide]"
12,> 7.00,"CC[C@@]1(O)CC[C@@]2(Cc3ccccc3)c3ccc(C(=O)Nc4cccnc4C)cc3CCC[C@H]2C1.CC[C@]1(O)CC[C@]2(Cc3ccccc3)c3ccc(C(=O)Nc4cccnc4C)cc3CCC[C@@H]2C1 [Example 12, (7aS,9R,11aS)-11a-Benzyl-9-ethyl-9-hydroxy-6,7,7a,8,9,10,11,11a-octahydro-5H-dibenzo[a,c]cycloheptene-3-carboxylic acid (2-methyl-pyridin-3-yl)-amide; compound with (7aR,9S,11aR)-11a-benzyl-9-ethyl-9-hydroxy-6,7,7a,8,9,10,11,11a-octahydro-5H-dibenzo[a,c]cycloheptene-3-carboxylic acid (2-methyl-pyridin-3-yl)-amide]"
13,< 5.00,"Cc1ncccc1NC(=O)c1ccc2c(c1)C(=O)NC[C@H]1CC(O)(C(F)(F)F)CC[C@@]21Cc1ccccc1 (stereo partly drawn) [Example 22, (4aS,11bS)-11b-benzyl-3-hydroxy-N-(2-methylpyridin-3-yl)-7-oxo-3-(trifluoromethyl)-2,3,4,4a,5,6,7,11b-octahydro-1H-dibenzo[c,e]azepine-9-carboxamide]"
